The subject of test [1] is Leptochloa chinensis (LEFCH). Put plainly: Biological Example 1 (Test 125): visual herbicidal damage to flooded LEFCH. Format: in vivo. Conditions: 200 g/ha fenoxasulfone applied alone, 14 DAA. The method, then: (§1) Rice seeds, variety IR-64 (an indica type of rice), were sown in seed trays. After 7 days the resulting plants were transplanted as 3 groups of 2 plants, into pots containing a standard sandy loam soil saturated with water replicating swampy conditions. These were grown on for a further 9 days in a glasshouse bay (30/20° C. day/night; 18/6 hours light/dark; 75% humidity). Leptochloa chinensis (LEFCH) and Echinochloa crus-galli (ECHCG) were sown as 2 separate groups of approx 10-20 seeds into pots 13 days prior to application of the test substances, in the same glasshouse conditions as the rice. Therefore, each pot of weeds contained a group of LEFCH and a separate group of ECHCG. All pots of rice and all pots of weeds were flooded to 2-3 cm water depth the day prior to application of the test substances. Growth stages at time of application were as follows: Rice: from 2 leaves on the main stem up to tillering; ECHCG: from 2 leaves on the main stem up to tillering; LEFCH: 2-3 leaves.
Test solutions were prepared by mixing the appropriate aliquots of the test substances in deionised water to give the desired treatment concentration. Most of the test substances were used as formulated products. Specifically, compound A-13 was applied as the EC050 formulation disclosed in Formulation Example 1 herein (EC=emulsifiable concentrate). […]

Test [2] deals with Echinochloa crus-galli (ECHCG). Put plainly: Biological Example 1 (Test 125): visual herbicidal damage to flooded ECHCG. It counts as in vivo. Conditions: 200 g/ha fenoxasulfone applied alone, 14 DAA. The method, then:
as §1
Test solutions were prepared by mixing the appropriate aliquots of the test substances in deionised water to give the desired treatment concentration. Most of the test substances were used as formulated products. Specifically, compound A-13 was applied as the EC050 formulation disclosed in Formulation Example 1 herein (EC=emulsifiable concentrate). Reference compound A-4 was applied as the EC050 formulation disclosed in Reference Formulation Example 2 herein. Pyroxasulfone (a comparator co-herbicide) was applied as the SC050 formulation disclosed in Reference Formulation Example 6 herein (SC=Suspension concentrate). Imazosulfuron (a comparator co-herbicide) was applied as a GR0.25 formulation (GR=granule).
The test substances which were pure active ingredient (e.g. propyrisulfuron & fenoxasulfone & compound A-16) (labelled as ‘Technical’ in the following results table), were prepared by dissolving in 10.56% Emulsogen EL™ (castor oil ethoxylate, CAS Registry number 61791-12-6), 42.22% N-methylpyrrolidone and 42.22% dipropylene glycol mono-ethyl ether to give a stock solution containing 5% of the test substance and 95% of (Emulsogen EL™, N-methylpyrrolidone and dipropylene glycol mono-ethyl ether).
Application of the test substances was made by pipetting the required amount of the test solution or the test formulation gently into the flood water of the appropriate pot.
The test plants were then grown on in the same glasshouse conditions, and watered twice daily keeping the flood water at a depth of 2-3 cm.
A visual assessment of the % herbicidal damage was made 7 & 14 days after application […], and the results are presented herein as % visual herbicidal damage where 0=no damage to plants and 100=total kill.

The record followed here is patent US20130137573A1, “HERBICIDAL COMPOSITIONS COMPRISING, AND METHODS OF USE OF, HERBICIDALLY ACTIVE PYRANDIONES” (priority 2009, published 2013).

In test [1], `CCOc1cc(Cl)c(CS(=O)(=O)C2=NOC(C)(C)C2)cc1Cl` [fenoxasulfone, reference compound] displayed an LEFCH control of 70%. The ECHCG control in test [2] came out at 65%.
